From ChEMBL document CHEMBL5465560, “Selectivity Literature for EUbOPEN Chemogenomic Library” (2024)

Columns and labels:
[1] = target: Cyclin-dependent kinase 11B (Homo sapiens) (UniProt P21127); test: Selectivity interaction (KinomeScan (DiscoverX)) EUB0000229b CDK11B; settings: at 10 µM
[2] = target: Macrophage colony-stimulating factor 1 receptor (Homo sapiens) (UniProt P07333); test: Selectivity interaction (KinomeScan (DiscoverX)) EUB0000229b CSF1R; settings: at 10 µM
[3] = target: Ephrin type-A receptor 2 (Homo sapiens) (UniProt P29317); test: Selectivity interaction (KinomeScan (DiscoverX)) EUB0000229b EPHA2; settings: at 10 µM
Misshapen-like kinase 1 = Misshapen-like kinase 1 (Homo sapiens, UniProt Q8N4C8); test: Selectivity interaction (KinomeScan (DiscoverX)) EUB0000045b MINK1
[4] = target: Receptor tyrosine-protein kinase erbB-2 (Homo sapiens, UniProt P04626); test: Selectivity interaction (Rxn Biology Kinase assay) EUB0001632a ERBB2; settings: at 10 µM
[5] = target: T1, Receptor-interacting serine/threonine-protein kinase 1 (Homo sapiens) (UniProt Q13546); test: Selectivity interaction (KinomeScan (DiscoverX)) EUB0000666a RIPK1; settings: at 10 µM
T1 sequence (whole entry): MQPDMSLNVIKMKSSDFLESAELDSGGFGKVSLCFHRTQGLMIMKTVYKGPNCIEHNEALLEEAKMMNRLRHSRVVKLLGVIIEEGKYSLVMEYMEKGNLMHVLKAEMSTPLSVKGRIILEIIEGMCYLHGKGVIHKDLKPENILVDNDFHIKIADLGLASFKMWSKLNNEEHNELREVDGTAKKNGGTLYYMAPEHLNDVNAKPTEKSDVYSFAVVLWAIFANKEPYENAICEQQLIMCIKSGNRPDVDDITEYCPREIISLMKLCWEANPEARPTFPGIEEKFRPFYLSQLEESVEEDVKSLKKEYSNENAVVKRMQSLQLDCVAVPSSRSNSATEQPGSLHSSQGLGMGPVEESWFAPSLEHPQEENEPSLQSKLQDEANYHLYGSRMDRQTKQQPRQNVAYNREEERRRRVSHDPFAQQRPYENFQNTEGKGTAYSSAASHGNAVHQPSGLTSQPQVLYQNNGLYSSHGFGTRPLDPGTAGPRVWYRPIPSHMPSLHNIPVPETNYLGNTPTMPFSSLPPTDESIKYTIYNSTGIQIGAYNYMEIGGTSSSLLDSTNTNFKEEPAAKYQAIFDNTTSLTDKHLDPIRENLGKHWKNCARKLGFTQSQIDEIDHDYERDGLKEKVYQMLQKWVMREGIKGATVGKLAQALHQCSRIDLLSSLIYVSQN

[6] = target: Calcium/calmodulin-dependent protein kinase type II subunit delta (Homo sapiens) (UniProt Q13557); test: Selectivity interaction (SelectScreen profiling (Invitrogen)) EUB0000607a CAMK2D; settings: at 2 µM
[7] = target: T2, Serine/threonine-protein kinase Sgk1 (Homo sapiens) (UniProt O00141); test: Selectivity interaction (SelectScreen profiling (Invitrogen)) EUB0000607a SGK1; settings: at 2 µM
T2 sequence (whole entry): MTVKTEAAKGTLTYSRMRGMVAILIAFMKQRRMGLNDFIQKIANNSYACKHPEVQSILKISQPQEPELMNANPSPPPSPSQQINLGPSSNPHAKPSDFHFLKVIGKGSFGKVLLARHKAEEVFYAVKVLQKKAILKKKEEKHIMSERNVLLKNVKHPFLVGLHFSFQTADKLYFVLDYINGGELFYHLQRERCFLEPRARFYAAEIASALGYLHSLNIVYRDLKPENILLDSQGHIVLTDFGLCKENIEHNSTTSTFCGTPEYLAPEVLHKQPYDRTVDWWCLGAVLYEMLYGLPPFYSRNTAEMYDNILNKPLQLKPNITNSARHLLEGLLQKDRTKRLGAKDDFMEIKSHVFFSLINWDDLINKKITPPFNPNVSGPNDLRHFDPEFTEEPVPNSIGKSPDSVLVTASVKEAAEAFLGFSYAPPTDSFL

[8] = target: T3, Serine/threonine-protein kinase D3 (Homo sapiens) (UniProt O94806); test: Selectivity interaction (KinomeScan (DiscoverX)) EUB0000655a PRKD3; settings: at 10 µM
T3 sequence (whole entry): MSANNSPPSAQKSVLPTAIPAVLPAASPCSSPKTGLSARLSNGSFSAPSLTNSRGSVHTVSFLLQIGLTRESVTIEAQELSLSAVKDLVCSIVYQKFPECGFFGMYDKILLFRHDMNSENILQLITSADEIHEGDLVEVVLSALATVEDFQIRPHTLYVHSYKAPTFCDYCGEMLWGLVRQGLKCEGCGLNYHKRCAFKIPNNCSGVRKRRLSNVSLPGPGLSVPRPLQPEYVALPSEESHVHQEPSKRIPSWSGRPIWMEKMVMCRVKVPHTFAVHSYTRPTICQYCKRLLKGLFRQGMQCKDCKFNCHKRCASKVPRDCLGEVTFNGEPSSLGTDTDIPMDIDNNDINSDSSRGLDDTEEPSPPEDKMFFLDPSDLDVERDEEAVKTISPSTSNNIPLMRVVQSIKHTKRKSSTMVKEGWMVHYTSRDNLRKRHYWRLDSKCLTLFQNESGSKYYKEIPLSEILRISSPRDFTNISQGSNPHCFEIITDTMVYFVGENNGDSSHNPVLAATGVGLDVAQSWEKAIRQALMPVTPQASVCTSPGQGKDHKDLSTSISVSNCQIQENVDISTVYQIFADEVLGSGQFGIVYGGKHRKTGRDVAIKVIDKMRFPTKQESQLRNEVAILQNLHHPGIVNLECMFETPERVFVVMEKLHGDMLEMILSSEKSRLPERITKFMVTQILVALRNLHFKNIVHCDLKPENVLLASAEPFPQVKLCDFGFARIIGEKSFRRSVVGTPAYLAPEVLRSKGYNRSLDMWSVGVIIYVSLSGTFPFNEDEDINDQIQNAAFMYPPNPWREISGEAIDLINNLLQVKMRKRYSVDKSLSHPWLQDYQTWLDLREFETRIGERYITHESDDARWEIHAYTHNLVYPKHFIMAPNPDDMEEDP

[9] = target: T4, Dual specificity mitogen-activated protein kinase kinase 4 (Homo sapiens) (UniProt P45985); settings: at 10 µM
T4 sequence (whole entry): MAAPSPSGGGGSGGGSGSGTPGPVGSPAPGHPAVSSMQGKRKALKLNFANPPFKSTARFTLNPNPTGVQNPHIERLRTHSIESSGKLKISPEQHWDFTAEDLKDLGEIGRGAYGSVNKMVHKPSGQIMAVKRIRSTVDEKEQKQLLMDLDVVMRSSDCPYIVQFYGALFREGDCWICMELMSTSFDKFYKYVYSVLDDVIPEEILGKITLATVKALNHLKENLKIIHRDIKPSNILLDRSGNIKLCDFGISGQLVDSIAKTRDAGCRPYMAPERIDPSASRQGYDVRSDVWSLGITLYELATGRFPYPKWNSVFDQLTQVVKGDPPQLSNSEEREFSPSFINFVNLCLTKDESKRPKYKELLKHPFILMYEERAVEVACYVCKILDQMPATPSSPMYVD

Chain of Misshapen-like kinase 1 (Q8N4C8 whole entry, looked up): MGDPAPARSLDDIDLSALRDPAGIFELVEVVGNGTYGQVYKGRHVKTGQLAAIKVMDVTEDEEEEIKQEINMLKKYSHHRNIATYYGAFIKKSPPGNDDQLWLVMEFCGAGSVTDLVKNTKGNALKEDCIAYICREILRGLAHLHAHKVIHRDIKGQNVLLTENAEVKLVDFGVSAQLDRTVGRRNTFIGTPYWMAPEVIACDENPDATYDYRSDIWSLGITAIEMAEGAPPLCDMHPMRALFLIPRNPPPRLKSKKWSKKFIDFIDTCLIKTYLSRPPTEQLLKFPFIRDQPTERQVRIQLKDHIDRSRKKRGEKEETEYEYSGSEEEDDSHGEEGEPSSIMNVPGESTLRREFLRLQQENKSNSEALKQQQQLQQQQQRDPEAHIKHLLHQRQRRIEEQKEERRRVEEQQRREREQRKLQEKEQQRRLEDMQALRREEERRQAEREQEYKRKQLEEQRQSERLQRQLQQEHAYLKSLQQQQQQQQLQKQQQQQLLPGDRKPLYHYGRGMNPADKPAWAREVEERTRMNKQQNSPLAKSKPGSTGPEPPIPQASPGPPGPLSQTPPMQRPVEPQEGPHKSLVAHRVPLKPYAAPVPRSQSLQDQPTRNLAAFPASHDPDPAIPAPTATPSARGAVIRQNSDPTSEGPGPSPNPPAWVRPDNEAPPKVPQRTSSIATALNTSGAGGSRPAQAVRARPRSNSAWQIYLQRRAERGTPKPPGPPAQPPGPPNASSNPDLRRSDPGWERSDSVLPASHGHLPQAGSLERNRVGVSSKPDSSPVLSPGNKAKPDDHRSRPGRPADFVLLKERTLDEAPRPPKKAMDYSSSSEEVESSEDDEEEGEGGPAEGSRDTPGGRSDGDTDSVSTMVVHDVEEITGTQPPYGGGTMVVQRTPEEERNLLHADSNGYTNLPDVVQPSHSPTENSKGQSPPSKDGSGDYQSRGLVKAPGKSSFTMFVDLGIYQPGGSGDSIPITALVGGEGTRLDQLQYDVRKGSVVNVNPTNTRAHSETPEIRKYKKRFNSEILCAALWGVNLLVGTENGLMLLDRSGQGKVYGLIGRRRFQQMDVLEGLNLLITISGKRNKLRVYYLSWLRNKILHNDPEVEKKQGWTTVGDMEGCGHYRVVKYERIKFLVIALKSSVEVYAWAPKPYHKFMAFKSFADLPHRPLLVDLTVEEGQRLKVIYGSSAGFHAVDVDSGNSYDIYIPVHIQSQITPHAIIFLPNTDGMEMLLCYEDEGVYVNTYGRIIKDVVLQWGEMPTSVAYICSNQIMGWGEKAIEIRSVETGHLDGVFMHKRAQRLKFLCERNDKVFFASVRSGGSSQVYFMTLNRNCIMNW
Chain of Calcium/calmodulin-dependent protein kinase type II subunit delta (Homo sapiens) (Q13557 whole entry): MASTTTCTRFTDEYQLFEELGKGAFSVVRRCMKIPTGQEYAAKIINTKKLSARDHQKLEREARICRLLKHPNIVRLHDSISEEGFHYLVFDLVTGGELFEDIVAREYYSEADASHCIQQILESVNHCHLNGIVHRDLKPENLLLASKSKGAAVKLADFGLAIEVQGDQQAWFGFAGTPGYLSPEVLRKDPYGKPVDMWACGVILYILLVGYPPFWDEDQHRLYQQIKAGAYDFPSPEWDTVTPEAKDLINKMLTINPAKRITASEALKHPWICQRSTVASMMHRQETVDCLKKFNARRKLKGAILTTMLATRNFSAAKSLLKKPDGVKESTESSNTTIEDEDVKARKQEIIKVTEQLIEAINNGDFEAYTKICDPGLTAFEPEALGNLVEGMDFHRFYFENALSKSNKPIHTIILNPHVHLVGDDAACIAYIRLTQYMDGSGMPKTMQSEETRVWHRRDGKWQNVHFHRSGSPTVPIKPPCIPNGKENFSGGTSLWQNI
Chain of Cyclin-dependent kinase 11B (Homo sapiens) (P21127 whole entry): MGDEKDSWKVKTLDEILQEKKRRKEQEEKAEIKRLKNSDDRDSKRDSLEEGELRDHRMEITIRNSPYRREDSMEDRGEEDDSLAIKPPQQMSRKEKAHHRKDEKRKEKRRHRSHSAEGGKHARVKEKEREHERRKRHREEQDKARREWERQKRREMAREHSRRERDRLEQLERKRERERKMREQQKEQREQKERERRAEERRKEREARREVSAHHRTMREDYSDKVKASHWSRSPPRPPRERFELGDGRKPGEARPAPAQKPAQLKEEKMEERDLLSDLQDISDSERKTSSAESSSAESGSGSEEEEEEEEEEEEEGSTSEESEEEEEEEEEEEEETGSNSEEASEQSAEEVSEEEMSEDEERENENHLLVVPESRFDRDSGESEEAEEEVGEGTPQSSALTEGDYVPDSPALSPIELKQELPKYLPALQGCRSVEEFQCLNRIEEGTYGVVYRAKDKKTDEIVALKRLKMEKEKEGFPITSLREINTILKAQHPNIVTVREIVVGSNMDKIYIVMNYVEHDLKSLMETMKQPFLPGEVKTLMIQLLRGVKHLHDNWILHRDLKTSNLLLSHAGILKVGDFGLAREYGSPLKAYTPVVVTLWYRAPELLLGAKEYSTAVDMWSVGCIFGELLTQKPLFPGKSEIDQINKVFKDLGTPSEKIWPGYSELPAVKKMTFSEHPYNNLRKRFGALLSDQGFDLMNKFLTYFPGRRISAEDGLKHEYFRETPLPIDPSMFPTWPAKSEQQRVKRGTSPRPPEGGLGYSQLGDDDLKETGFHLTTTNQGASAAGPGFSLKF
Chain of Macrophage colony-stimulating factor 1 receptor (Homo sapiens) (P07333 whole entry): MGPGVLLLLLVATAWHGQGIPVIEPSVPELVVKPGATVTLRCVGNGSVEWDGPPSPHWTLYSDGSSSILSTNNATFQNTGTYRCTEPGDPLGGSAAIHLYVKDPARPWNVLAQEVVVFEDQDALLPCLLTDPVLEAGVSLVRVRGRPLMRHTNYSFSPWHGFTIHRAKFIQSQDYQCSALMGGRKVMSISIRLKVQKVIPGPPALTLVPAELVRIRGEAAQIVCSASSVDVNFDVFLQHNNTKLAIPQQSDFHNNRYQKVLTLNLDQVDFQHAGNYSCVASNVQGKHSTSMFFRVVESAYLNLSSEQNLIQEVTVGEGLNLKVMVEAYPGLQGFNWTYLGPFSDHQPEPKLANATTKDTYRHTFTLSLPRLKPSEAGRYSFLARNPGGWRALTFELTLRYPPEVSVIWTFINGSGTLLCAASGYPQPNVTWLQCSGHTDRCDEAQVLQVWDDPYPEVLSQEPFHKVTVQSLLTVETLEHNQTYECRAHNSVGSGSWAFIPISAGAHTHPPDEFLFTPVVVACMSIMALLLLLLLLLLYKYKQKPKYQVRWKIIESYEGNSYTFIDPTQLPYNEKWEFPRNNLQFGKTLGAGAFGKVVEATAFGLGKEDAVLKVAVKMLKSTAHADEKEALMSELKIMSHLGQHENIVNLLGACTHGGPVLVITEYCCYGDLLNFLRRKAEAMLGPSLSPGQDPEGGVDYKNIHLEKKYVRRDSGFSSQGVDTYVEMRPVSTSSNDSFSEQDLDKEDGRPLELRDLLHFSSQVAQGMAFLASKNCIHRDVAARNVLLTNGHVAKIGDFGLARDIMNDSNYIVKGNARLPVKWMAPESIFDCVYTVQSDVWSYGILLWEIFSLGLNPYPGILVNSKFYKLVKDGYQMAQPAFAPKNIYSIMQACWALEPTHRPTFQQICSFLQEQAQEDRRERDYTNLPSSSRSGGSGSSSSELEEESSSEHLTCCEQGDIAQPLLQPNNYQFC
Chain of Receptor tyrosine-protein kinase erbB-2 (P04626 whole entry): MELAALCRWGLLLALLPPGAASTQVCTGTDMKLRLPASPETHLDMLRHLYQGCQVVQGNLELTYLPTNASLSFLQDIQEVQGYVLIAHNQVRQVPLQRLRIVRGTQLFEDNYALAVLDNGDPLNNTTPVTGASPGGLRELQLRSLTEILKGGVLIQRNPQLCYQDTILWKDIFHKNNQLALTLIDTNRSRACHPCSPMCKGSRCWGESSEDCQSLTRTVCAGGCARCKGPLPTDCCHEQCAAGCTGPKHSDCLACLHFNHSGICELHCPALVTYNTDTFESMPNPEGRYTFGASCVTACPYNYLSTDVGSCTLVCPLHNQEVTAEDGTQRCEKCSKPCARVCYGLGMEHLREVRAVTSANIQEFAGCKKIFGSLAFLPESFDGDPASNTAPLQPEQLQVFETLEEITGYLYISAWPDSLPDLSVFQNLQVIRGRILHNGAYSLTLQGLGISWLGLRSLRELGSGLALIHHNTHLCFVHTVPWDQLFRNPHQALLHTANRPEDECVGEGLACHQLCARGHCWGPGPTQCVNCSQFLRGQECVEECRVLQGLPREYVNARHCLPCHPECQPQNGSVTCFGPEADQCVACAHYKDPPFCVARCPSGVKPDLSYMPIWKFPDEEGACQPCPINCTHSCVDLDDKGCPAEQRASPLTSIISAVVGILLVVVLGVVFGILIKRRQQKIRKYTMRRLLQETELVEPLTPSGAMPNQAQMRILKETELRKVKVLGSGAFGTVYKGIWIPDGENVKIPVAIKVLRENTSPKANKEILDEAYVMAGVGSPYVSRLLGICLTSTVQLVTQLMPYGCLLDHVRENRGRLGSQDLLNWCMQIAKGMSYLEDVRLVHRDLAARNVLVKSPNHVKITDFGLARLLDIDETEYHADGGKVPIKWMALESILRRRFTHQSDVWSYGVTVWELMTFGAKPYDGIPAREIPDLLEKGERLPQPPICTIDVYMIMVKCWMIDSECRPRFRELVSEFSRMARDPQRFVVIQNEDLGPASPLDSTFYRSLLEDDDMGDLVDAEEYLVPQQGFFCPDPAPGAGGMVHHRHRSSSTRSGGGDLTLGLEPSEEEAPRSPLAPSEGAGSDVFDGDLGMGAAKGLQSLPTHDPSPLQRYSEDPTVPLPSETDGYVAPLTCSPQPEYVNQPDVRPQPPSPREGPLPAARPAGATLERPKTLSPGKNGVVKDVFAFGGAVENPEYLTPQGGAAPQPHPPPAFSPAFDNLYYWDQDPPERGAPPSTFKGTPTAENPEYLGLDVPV

COc1cc(N(C)c2ccnc3ccc(C(F)(F)F)cc23)cc(OC)c1OC
% binding [1]: 85%
% binding [2]: 91%
% binding [3]: 88%

C=CC(=O)Nc1cc(-n2c(=O)ccc3cnc4ccc(-c5ccc(NS(C)(=O)=O)cc5)cc4c32)ccc1C
% of control (Misshapen-like kinase 1; at 1 µM): 100%
% of control (Misshapen-like kinase 1; at 10 µM): 73%

Cn1cc(-n2cnc3c(NCc4nc5cc(Cl)c(Cl)cc5[nH]4)nc(N4CCOCC4)nc32)cn1
% of inhibition [4]: 2.6%

O=C(NOC[C@H](O)CO)c1ccc(F)c(F)c1Nc1ccc(I)cc1F
% of control [5]: 85%

CNC(=O)Nc1ccc(-c2nc(N3CC4CCC(C3)O4)c3cnn(C4CCC5(CC4)OCCO5)c3n2)cc1
% of inhibition [6]: 11%
% of inhibition [7]: -2%

CN(C)CCOc1ccc(-c2nc(-c3ccncc3)c(-c3ccc4c(c3)CC/C4=N\O)[nH]2)cc1
% of control [8]: 40%

CCN(CC)CCCCNc1ncc2cc(-c3cc(OC)cc(OC)c3)c(NC(=O)NC(C)(C)C)nc2n1
% of control [9]: 100%
